From patent publication US8273717B2, “Inhibitor for perioperative blood sugar elevation” (Otsuka Pharmaceutical Factory, Inc., priority 2003, dated 2012)

Columns and labels:
Format in all cases: in vivo, rat
blood sugar level [1] = test: Test Example 6: effect of branched amino acids in blood sugar elevation model by glucose (blood sugar level); conditions: Pentobarbital anesthesia; for time at which blood sugar level reached the maximum (peak): after the start of test, 5 weight % glucose-1.8% amino acid i.v.
Protocol: A blood sugar elevation model was made by intravenous administration of glucose to the living body, and the effect was examined with parallel administration of leucine, isoleucine and valine in the above-mentioned model.
(§1) Rats were pre-treated in a similar manner to Test Example 4, and anesthesia in the rats was maintained for 3 hours by intravenous continuous administration of Pentobarbital in a similar manner to Test Example 4. […] Blood was collected (100 μL) through the catheter for administration of aqueous amino acid solution before the start of administration, 30 minutes, 90 minutes, and 180 minutes after the start of administration respectively. And then, the blood sugar level and serum insulin value were determined according to Test Example 1.

blood sugar level [2] = test: Test Example 8: inhibition of blood sugar elevation by oral isoleucine during sugar tolerance, non-anesthesia vs anesthesia; conditions: 0.5 g/10 mL/kg isoleucine orally, 3 g glucose/kg orally 30 minutes later
Protocol: Non-anesthesia group: rats under overnight fasting conditions were divided into groups by body weight, blood was collected from a tail vein (Pre Value). To a control group and a sample solution group was orally administered 0.5 g/10 mL/kg of OTSUKA distilled water (water for injection; manufactured by OTSUKA PHAMACEUTICAL FACTORY, INC.) and 0.5 g/10 mL/kg of aqueous isoleucine solution, respectively. 50% OTSUKA sugar solution (glucose injection (glucose 100 g/200 mL); manufactured by OTSUKA PHAMACEUTICAL FACTORY, INC.; hereinafter also simply called glucose solution) was administered orally so as to be 3 g glucose/kg 30 minutes after the administration of the sample solution. Blood was collected from the tail vein 30 minutes, 60 minutes, 90 minutes, and 120 minutes after the start of sugar solution administration, and the blood sugar level was determined. Each blood sugar level was considered as 30 minutes value, 60 minutes value, 90 minutes value, and 120 minutes value, respectively in the non-anesthesia group.
Anesthesia group: rats under overnight fasting conditions were divided into groups by body weight, blood was collected from a tail vein (Pre Value). […] The blood sugar level of the blood collected from the tail vein 30 minutes, 60 minutes, 90 minutes, and 120 minutes after the administration of sugar solution was determined. […]

blood sugar level [3] = test: Test Example 7: blood sugar decrease by oral administration of leucine, anesthesia vs non-anesthesia; conditions: 0.3 g/10 mL/kg leucine suspension orally
Protocol: Non-anesthesia group: rats under overnight fasting conditions were divided into groups by body weight, and blood was collected from a tail vein (Pre Value). Shortly after that, 10 mL/kg of distilled water was orally administered to control group, and 0.3 g/10 mL/kg of leucine suspension to a sample solution group. Blood was collected from the tail vein 90 minutes after the administration of distilled water and the sample solution (90 minutes value).
Anesthesia group: rats under overnight fasting conditions were divided into groups by body weight, and blood was collected from a tail vein (Pre Value). After the blood collection, 10 mL/kg of distilled water was orally administered to a control group, and 0.3 g/10 mL/kg of leucine suspension to a sample solution group. Saflow indwelling needle was kept in the tail vein 30 minutes after the sample solution was administered. After that, anesthesia was introduced by rapid intravenous administration of 30 mg/kg Pentobarbital Sodium. Thereafter, a gastight syringe disposed in micro syringe pump and an indwelling needle were connected through an extension tube, and anesthesia was maintained by continuous intravenous administration of 30 mg/kg/hr. Blood was collected from the tail vein opposite to that wherein the indwelling needle was kept 60 minutes after introduction of anesthesia (90 minutes value).
In addition, blood was collected in a tube for hematocrit determination. After collected blood was centrifuged, plasma fraction was recovered and the blood sugar level was determined according to Test Example 1.
The changed value of the blood sugar level was calculated by deducting Pre value of each rat plasma from 90 minutes value of each rat plasma.

serum insulin value = test: Test Example 6: serum insulin value with glucose+leucine
Protocol: The serum insulin value was determined by ELISA Method (manufactured by Mevcodia Co.).
as §1

Structure (SMILES)	time at which blood sugar level reached the maximum (peak) (blood sugar level [1])	area under the blood sugar level curve (AUC, 0-120 min) compared to control group (blood sugar level [2]; anesthesia group (Somnopentyl i.p.))	area under the blood sugar level curve (AUC, 0-120 min) compared to control group (blood sugar level [2]; non-anesthesia group)	decrease extent of blood sugar level in the anesthesia group compared to non-anesthesia group (blood sugar level [3])	changed value of the blood sugar level (90 minutes value minus Pre value) (blood sugar level [3]; anesthesia group (Pentobarbital Sodium))	changed value of the blood sugar level (90 minutes value minus Pre value) (blood sugar level [3]; non-anesthesia group)	blood sugar level compared with glucose administration group (blood sugar level [1]; 90 and 180 minutes after the start of the test)	increase of serum insulin value under anesthesia relative to non-anesthesia (serum insulin value; 30 minutes)	increase of serum insulin value under anesthesia relative to non-anesthesia (serum insulin value; 90 minutes)	increase of serum insulin value under anesthesia relative to non-anesthesia (serum insulin value; 180 minutes)
CC[C@H](C)[C@H](N)C(=O)O [isoleucine]	30 min	significant decrease	decreased compared to that of the control group	–	–	–	–	–	–	–
CC(C)C[C@H](N)C(=O)O [leucine]	30 min	–	–	2.7 times	decrease in blood sugar level was recognized	decrease in blood sugar level was recognized	lower significantly	1.7 times	9.9 times	16.2 times
